What was measured:
Format in all cases: cell-based
CDK9 = molecular target: T1, CDK9 (Homo sapiens, UniProt P50750); assay: CDK9 HIBIT PQ (protein quantification), degradation; details: for Dmax: Max = Maximum; for DC50: PQ = Protein Quantification
T1 construct: host or cells: HEK293
How it was run: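 In 384-well plates, HEK293 cells with HiBiT-tagged CDK9, grown in DMEM with 10% FBS, were seeded at 1.6×10^5 cells/well in 50 uL and kept overnight at 37° C and 5% CO2. After compound treatment, a HiBiT assay quantified CDK9 protein against a high control of 0.1% DMSO-treated cells and a low control of culture medium only. Maximal degradation, Dmax and DC50 were derived from the resulting signal.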

CDK2 = molecular target: T2, CDK2 (Homo sapiens, UniProt P24941); assay: CDK2 HIBIT PQ (protein quantification), degradation; details: for CDK2 HIBIT PQ Max (%): Max = Maximum; for DC50: PQ = Protein Quantification
T2 construct: host or cells: HEK293
How it was run: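 HEK293 cells carrying HiBiT-tagged CDK2 were grown in DMEM with 10% FBS and seeded in 384-well plates at 1.6×10^5 cells/well in 50 uL, then incubated overnight at 37° C and 5% CO2. After 6 hours of compound treatment, 20 μL of HiBiT reagent (Nano-Glo HiBiT lytic buffer, lytic substrate, LgBiT protein) was added and plates were shaken for 20 minutes at room temperature before an EnVision reading. High control was 0.1% DMSO and low control was medium only. Maximal degradation and DC50 were derived from these readings.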

CCNE1 = molecular target: T3, CCNE1 (Homo sapiens, UniProt P24864+P24941); assay: CCNE1 HIBIT PQ (protein quantification), degradation; details: for CCNE1 HIBIT PQ Max (%): Max = Maximum; for DC50: PQ = Protein Quantification
T3 construct: host or cells: HEK293
How it was run: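 HEK293 cells with HiBiT-tagged CCNE1 were cultured in EMEM containing 10% FBS, plated at 1.6×10⁵ cells/well in 50 uL in 384-well plates and left overnight at 37° C with 5% CO₂. After 6 hours of compound exposure, a HiBiT assay measured CCNE1 protein, with 0.1% DMSO-treated cells as the high control and medium alone as the low control. DC50 and maximal degradation came from these readings.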

T1 sequence (P50750 whole entry): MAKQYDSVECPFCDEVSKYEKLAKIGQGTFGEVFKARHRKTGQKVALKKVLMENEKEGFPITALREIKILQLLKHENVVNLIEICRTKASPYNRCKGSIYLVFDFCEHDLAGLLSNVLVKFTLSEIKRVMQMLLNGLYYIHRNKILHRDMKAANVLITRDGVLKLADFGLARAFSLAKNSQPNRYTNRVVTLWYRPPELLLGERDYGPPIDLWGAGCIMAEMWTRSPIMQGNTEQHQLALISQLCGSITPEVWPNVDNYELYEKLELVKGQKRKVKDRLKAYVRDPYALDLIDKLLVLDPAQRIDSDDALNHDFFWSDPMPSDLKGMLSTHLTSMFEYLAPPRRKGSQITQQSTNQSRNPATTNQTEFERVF

| Dmax (CDK9) | CDK2 HIBIT PQ Max (%) (CDK2) | DC50 (CDK2) | CCNE1 HIBIT PQ Max (%) (CCNE1) | DC50 (CCNE1) | DC50 (CDK9) | SMILES |
| --- | --- | --- | --- | --- | --- | --- |
| 13% | 84% | 3.8 nM | 51% | 2.4 nM | – | CC(C)Oc1c(-c2cn[nH]c2)ncn2nc(Nc3ccc(S(=O)(=O)c4cccc(CN5CCC(c6cccc7c(N8CCC(=O)NC8=O)nn(C)c67)CC5)c4)cc3F)nc12 [Compound 26] |
| 6% | 66% | 6.3 nM | 10% | – | – | CC(C)Oc1c(-c2cn[nH]c2)ncn2nc(Nc3ccc(S(=O)(=O)N4CC5(CCCN(CCOc6cccc7c6n(C)c(=O)n7C6CCC(=O)NC6=O)C5)C4)cc3F)nc12 (centres unmarked) [Compound 27] |
| 12% | 94% | 8 nM | 78% | 18.7 nM | – | CC(C)Oc1c(-c2cn[nH]c2)ncn2nc(Nc3ccc(S(=O)(=O)c4cccc(C[C@H]5C[C@@H](c6ccc7c(c6)CN(C6CCC(=O)NC6=O)C7=O)C5)c4)cc3F)nc12 (some centres unmarked) [Compound 29, 3-{1-oxo-5-[(1s,3s)-3-{[3-(3-fluoro-4-{[8-isopropoxy-7-(1H-pyrazol-4-yl)-[1,2,4]triazolo[1,5-c]pyrimidin-2-yl]amino}benzenesulfonyl)phenyl]methyl}cyclobutyl]-3H-isoindol-2-yl}piperidine-2,6-dione] |
| 54% | 96% | 7.2 nM | 79% | 29.5 nM | 147 nM | CC(C)Oc1c(-c2cn[nH]c2)ncn2nc(Nc3ccc(S(=O)(=O)c4cccc(C[C@H]5C[C@H](c6ccc7c(c6)CN(C6CCC(=O)NC6=O)C7=O)C5)c4)cc3F)nc12 (some centres unmarked) [Compound 30] |
| 9% | 91% | 19 nM | 47% | – | – | CC(C)Oc1c(-c2cn[nH]c2)ncn2nc(Nc3ccc(S(=O)(=O)c4cccc(CC5CC(c6ccc7c(N8CCC(=O)NC8=O)nn(C)c7c6)C5)c4)cc3F)nc12 (centres unmarked) [Compound 33, 1-(6-(3-(3-((3-fluoro-4-((8-isopropoxy-7-(1H-pyrazol-4-yl)-[1,2,4]triazolo[1,5-c]pyrimidin-2-yl)amino)phenyl)sulfonyl)benzyl)cyclobutyl)-1-methyl-1H-indazol-3-yl)dihydropyrimidine-2,4(1H,3H)-dione] |
| 31% | 86% | 5.6 nM | 62% | 14.1 nM | – | CC(C)Oc1c(-c2cn[nH]c2)ncn2nc(Nc3ccc(S(=O)(=O)c4cccc(N5CCC6C5CN6c5ccc6c(c5)CN(C5CCC(=O)NC5=O)C6=O)c4)cc3F)nc12 (centres unmarked) [Compound 34, 3-(5-{2-[3-(3-fluoro-4-{[8-isopropoxy-7-(1H-pyrazol-4-yl)-[1,2,4]triazolo[1,5-c]pyrimidin-2-yl]amino}benzenesulfonyl)phenyl]-2,6-diazabicyclo[3.2.0]heptan-6-yl}-1-oxo-3H-isoindol-2-yl)piperidine-2,6-dione] |
| 17% | 79% | 6.5 nM | 25% | – | – | CC(C)Oc1c(-c2cn[nH]c2)ncn2nc(Nc3ccc(S(=O)(=O)c4cccc(N5CCCC6C5CN6c5ccc6c(c5)CN(C5CCC(=O)NC5=O)C6=O)c4)cc3F)nc12 (centres unmarked) [Compound 35] |
| 87% | 89% | 2.9 nM | 63% | 22.1 nM | 57.6 nM | CC(C)Oc1c(-c2cn[nH]c2)ncn2nc(Nc3ccc(S(=O)(=O)N4CCC5(CCN(C6CCN(c7ccc8c(c7)n(C)c(=O)n8C7CCC(=O)NC7=O)CC6)C5)C4)cc3F)nc12 (centres unmarked) [Compound 36] |
| 51% | 84% | 2.9 nM | 30% | – | 43.7 nM | CC(C)Oc1c(-c2cn[nH]c2)ncn2nc(Nc3ccc(S(=O)(=O)N4CCC5(CCCN5C5CCN(c6ccc7c(c6)n(C)c(=O)n7C6CCC(=O)NC6=O)CC5)C4)cc3F)nc12 (centres unmarked) [Compound 37] |
| 63% | 96% | 2.3 nM | 55% | 5.76 nM | 24 nM | CC(C)Oc1c(-c2cn[nH]c2)ncn2nc(Nc3ccc(S(=O)(=O)c4cccc(CN5CCN(c6ccc7c(N8CCC(=O)NC8=O)nn(C)c7c6)CC5)c4)cc3F)nc12 [Compound 38] |
| 103% | 96% | 3.6 nM | 89% | 8.91 nM | 16.7 nM | CC(C)Oc1c(-c2cn[nH]c2)ncn2nc(N[C@H]3CCN(S(=O)(=O)c4cccc(CN5CCN(c6ccc7c(N8CCC(=O)NC8=O)nn(C)c7c6)CC5)c4)C[C@H]3C)nc12 [Compound 40] |
| 15% | 92% | 3.5 nM | 39% | – | – | CC(C)Oc1c(-c2cn[nH]c2)ncn2nc(Nc3ccc(S(=O)(=O)c4cccc(CN5CCN(c6ccc7c(N8CCC(=O)NC8=O)nn(C)c7c6)C6CC65)c4)cc3F)nc12 (centres unmarked) [Compound 44] |
| 74% | 97% | 6.2 nM | 72% | 55 nM | 136 nM | CC(C)Oc1c(-c2cn[nH]c2)ncn2nc(Nc3ccc(S(=O)(=O)c4cccc(CN5CCN(c6ccc7c(N8CCC(=O)NC8=O)nn(C)c7c6)CC5(C)C)c4)cc3F)nc12 [Compound 47] |
| 2% | 79% | 3.1 nM | 21% | – | – | CC(C)Oc1c(-c2cn[nH]c2)ncn2nc(Nc3ccc(S(=O)(=O)c4cccc(CN5CC6CC5CN6c5ccc6c(N7CCC(=O)NC7=O)nn(C)c6c5)c4)cc3F)nc12 (centres unmarked) [Compound 48] |
| 104% | 98% | 2.2 nM | 96% | 9.43 nM | 11.6 nM | CC(C)Oc1c(-c2cn[nH]c2)ncn2nc(N[C@H]3CCN(S(=O)(=O)c4cccc(CN5CCN(c6ccc7c(N8CCC(=O)NC8=O)nn(C)c7c6)C(C)C5)c4)C[C@H]3C)nc12 (some centres unmarked) [Compound 49] |
| 96% | 97% | 2.8 nM | 90% | 15.2 nM | 23.5 nM | CCC1CN(c2ccc3c(N4CCC(=O)NC4=O)nn(C)c3c2)CCN1Cc1cccc(S(=O)(=O)N2CC[C@H](Nc3nc4c(OC(C)C)c(-c5cn[nH]c5)ncn4n3)[C@H](C)C2)c1 (some centres unmarked) [Compound 50] |
| 100% | 98% | 2.4 nM | 92% | 9.29 nM | 20.2 nM | CC(C)Oc1c(-c2cn[nH]c2)ncn2nc(N[C@H]3CCN(S(=O)(=O)c4cccc(CN5CCN(c6ccc7c(N8CCC(=O)NC8=O)nn(C)c7c6)CC5C)c4)C[C@H]3C)nc12 (some centres unmarked) [Compound 51] |
| 93% | 98% | 2.8 nM | 93% | 13.8 nM | 38.7 nM | CC(C)Oc1c(-c2cn[nH]c2)ncn2nc(N[C@H]3CCN(S(=O)(=O)c4cccc(CN5CCN(c6ccc7c(N8CCC(=O)NC8=O)nn(C)c7c6)CC5(C)C)c4)C[C@H]3C)nc12 [Compound 52] |
| 75% | 91% | 0.1 nM | 65% | 0.92 nM | 1.22 nM | CC(C)Oc1c(-c2cn[nH]c2)ncn2nc(Nc3ccc(S(=O)(=O)N(C)CCCN4CCN(c5ccc6c(c5)n(C)c(=O)n6C5CCC(=O)NC5=O)C[C@@H]4C)cc3F)nc12 (some centres unmarked) [Compound 62] |
| 85% | 92% | < 0.152 nM | 66% | 1.24 nM | 2.07 nM | CC(C)Oc1c(-c2cn[nH]c2)ncn2nc(Nc3ccc(S(=O)(=O)N(C)CCCN4CCN(c5ccc6c(c5)n(C)c(=O)n6C5CCC(=O)NC5=O)C[C@H]4C)cc3F)nc12 (some centres unmarked) [Compound 63] |
| 74% | 89% | 0.2 nM | 65% | 1.79 nM | 3.38 nM | CC(C)Oc1c(-c2cn[nH]c2)ncn2nc(Nc3ccc(S(=O)(=O)N(C)CCCN4CCN(c5ccc6c(c5)n(C)c(=O)n6C5CCC(=O)NC5=O)C[C@@H]4C(C)C)cc3F)nc12 (some centres unmarked) [Compound 64] |
| 49% | 85% | 0.2 nM | 39% | – | – | CC(C)Oc1c(-c2cn[nH]c2)ncn2nc(Nc3ccc(S(=O)(=O)N(C)CCCN4CCN(c5ccc6c(c5)n(C)c(=O)n6C5CCC(=O)NC5=O)C[C@H]4C(C)C)cc3F)nc12 (some centres unmarked) [Compound 65] |

| SMILES | Dmax (CDK9) | CDK2 HIBIT PQ Max (%) (CDK2) | DC50 (CDK2) | CCNE1 HIBIT PQ Max (%) (CCNE1) | DC50 (CCNE1) | DC50 (CDK9) |
| --- | --- | --- | --- | --- | --- | --- |
| CC(C)Oc1c(-c2cn[nH]c2)ncn2nc(Nc3ccc(S(=O)(=O)c4cccc(CN5C6CC5CN(c5ccc7c(N8CCC(=O)NC8=O)nn(C)c7c5)C6)c4)cc3F)nc12 [Compound 45] | -10% | 85% | 4.3 nM | 33% | – | – |
| CC(C)Oc1c(-c2cn[nH]c2)ncn2nc(Nc3ccc(S(=O)(=O)c4cccc(CN5C6CCC5CN(c5ccc7c(N8CCC(=O)NC8=O)nn(C)c7c5)C6)c4)cc3F)nc12 [Compound 46] | 71% | 95% | 3.6 nM | 48% | – | 92.1 nM |
